target: Hexokinase-4 (Human, UniProt P35557); assay: Glucokinase Activity Assay
Procedure: Recombinant human liver glucokinase was expressed as a FLAG fusion protein in E. coli, and purified on […] M2 AFFINITY GEL (Sigma). The assay was carried out at 30° C. in a 96-well plate. In the plate was distributed 69 μl each of assay buffer (25 mM Hepes Buffer: pH=7.2, 2 mM MgCl2, 1 mM ATP, 0.5 mM TNAD, 1 mM dithiothreitol), to which was added 1 μl of a DMSO solution of the compound or DMSO as control. Then, 20 μl of pre-ice-cooled enzyme mixture (FLAG-GK, 20 U/ml G6PDH) was distributed thereto, to which was added 10 μl of 25 mM glucose as substrate to initiate the reaction (final glucose concentration=2.5 mM). After starting the reaction, the absorbance at 405 nm was measured every 30 seconds for 10 minutes to evaluate the compound based on the initial increase for 5 minutes. FLAG-GK was added so that the increase of absorbance after 5 minutes fell between 0.05 to 0.1 in the presence of 1% DMSO.

Hexokinase-4, sequence (P35557 whole entry, other chains not shown, the tested form may be a part): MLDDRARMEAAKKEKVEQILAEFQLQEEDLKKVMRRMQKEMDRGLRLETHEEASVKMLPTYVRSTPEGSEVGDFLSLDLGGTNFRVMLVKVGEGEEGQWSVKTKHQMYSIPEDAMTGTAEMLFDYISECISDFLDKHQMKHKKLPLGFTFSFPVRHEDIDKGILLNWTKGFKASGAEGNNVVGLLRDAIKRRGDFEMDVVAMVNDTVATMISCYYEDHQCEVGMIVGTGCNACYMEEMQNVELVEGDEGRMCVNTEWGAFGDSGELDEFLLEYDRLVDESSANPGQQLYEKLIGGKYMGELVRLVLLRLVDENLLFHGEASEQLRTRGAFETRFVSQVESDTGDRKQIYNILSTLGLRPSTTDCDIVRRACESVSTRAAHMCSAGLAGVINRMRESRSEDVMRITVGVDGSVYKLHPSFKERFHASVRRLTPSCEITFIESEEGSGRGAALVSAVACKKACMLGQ

SMILES | EC50 [nM]
CCOC(=O)Cc1nc(NC(=O)c2nc(Sc3ccc(F)cc3)ccc2Sc2ccc(F)cc2)sc1Cl [US9527838, 29] | 16000
CCOC(=O)C(C)(C)CSc1cnc(NC(=O)c2nc(Sc3nncn3C)ccc2Sc2ccc(F)cc2)s1 [US9527838, 20] | 16.9
CCOC(=O)CSc1cnc(NC(=O)c2nc(Sc3ccc(F)cc3)ccc2Sc2ccc(F)cc2)s1 [US9527838, 27] | 386
